According to patent US9650340B2, “5-fluoro-N-(pyridin-2-yl)pyridin-2-amine derivatives containing a sulfoximine group” (BAYER PHARMA AKTIENGESELLSCHAFT, priority 2012, dated 2017):
pIC50: −log10 of the molar value. Read-outs that look alike come from different tables or passages of the source.

Experiments:
[1] = test system: HeLa-MaTu-ADR, multidrug-resistant human cervical carcinoma cells; test: Proliferation assay, HeLa-MaTu-ADR (crystal violet); type: cell-based; settings: 4 days, read-out: Inhibition of HeLa-MaTu-ADR cell proliferation IC50
Protocol: (§1) Cultivated tumour cells (HeLa, human cervical tumour cells, ATCC CCL-2; NCI-H460, human non-small cell lung carcinoma cells, ATCC HTB-177; A2780, human ovarian carcinoma cells, ECACC #93112519; DU 145, hormone-independent human prostate carcinoma cells, ATCC HTB-81; HeLa-MaTu-ADR, multidrug-resistant human cervical carcinoma cells, EPO-GmbH Berlin; Caco-2, human colorectal carcinoma cells, ATCC HTB-37; B16F10, mouse melanoma cells, ATCC CRL-6475) were plated at a density of 5,000 cells/well (DU145, HeLa-MaTu-ADR), 3,000 cells/well (NCI-H460, HeLa), 2,500 cells/well (A2780), 1,500 cells/well (Caco-2), or 1,000 cells/well (B16F10) in a 96-well multititer plate in 200 μL of their respective growth medium supplemented 10% fetal calf serum. After 24 hours, the cells of one plate (zero-point plate) were stained with crystal violet (see below), while the medium of the other plates was replaced by fresh culture medium (200 μl), to which the test substances were added in various concentrations (0 μM, as well as in the range of 0.001-10 μM; the final concentration of the solvent dimethyl sulfoxide was 0.5%). The cells were incubated for 4 days in the presence of test substances. Cell proliferation was determined by staining the cells with crystal violet: the cells were fixed by adding 20 μl/measuring point of an 11% glutaric aldehyde solution for 15 minutes at room temperature. After three washing cycles of the fixed cells with water, the plates were dried at room temperature. The cells were stained by adding 100 μl/measuring point of a 0.1% crystal violet solution (pH 3.0). After three washing cycles of the stained cells with water, the plates were dried at room temperature. The dye was dissolved by adding 100 μl/measuring point of a 10% acetic acid solution. The extinction was determined by photometry at a wavelength of 595 nm. The change of cell number, in percent, was calculated by normalization of the measured values to the extinction values of the zero-point plate (=0%) and the extinction of the untreated (0 μm) cells (=100%). The IC50 values (inhibitory concentration at 50% of maximal effect) were determined by means of a 4 parameter fit. Non-adherent MOLM-13 human acute myeloid leukemia cells (DSMZ ACC 554) were seeded at a density of 5,000 cells/well in a 96-well multititer plate in 100 μL of growth medium supplemented 10% fetal calf serum. After 24 hours, cell viability of one plate (zero-point plate) was determined with the Cell Titre-Glo Luminescent Cell Viability Assay (Promega), while 50 μL of test compound containing medium was added to the wells of the other plates (final concentrations in the range of 0.001-10 μM and DMSO controls; the final concentration of the solvent dimethyl sulfoxide was 0.5%). Cell viability was assessed after 72-hour exposure with the Cell Titre-Glo Luminescent Cell Viability Assay (Promega).

[2] = test system: B16F10, mouse melanoma cells; test: Proliferation assay, B16F10 (crystal violet); type: cell-based; settings: B16F10, 4 days, read-out: Inhibition of B16F10 cell proliferation IC50
Protocol: as §1

[3] = biological target: T1, CDK2/CycE (Homo sapiens, UniProt P24941); test: CDK2/CycE kinase assay (TR-FRET, 10 μM ATP); type: biochemical; settings: Method 2 (2a)
T1 construct: GST; purchased ProQinase GmbH (Freiburg, Germany); host or cells: insect cells (Sf9)
Source text: 2a. CDK2/CycE Kinase Assay:
CDK2/CycE-inhibitory activity of compounds of the present invention was quantified employing the CDK2/CycE TR-FRET assay as described in the following paragraphs:
Recombinant fusion proteins of GST and human CDK2 and of GST and human CycE, expressed in insect cells (Sf9) and purified by Glutathion-Sepharose affinity chromatography, were purchased from ProQinase GmbH (Freiburg, Germany). As substrate for the kinase reaction biotinylated peptide biotin-Ttds-[…] (C-terminus in amid form) was used which can be purchased e.g. form the company JERINI Peptide Technologies (Berlin, Germany).
For the assay 50 nl of a 100 fold concentrated solution of the test compound in DMSO was pipetted into a black low volume 384 well microtiter plate (Greiner Bio-One, Frickenhausen, Germany), 2 μl of a solution of CDK2/CycE in aqueous assay buffer [50 mM Tris/HCl pH 8.0, 10 mM MgCl2, 1.0 mM dithiothreitol, 0.1 mM sodium ortho-vanadate, 0.01% (v/v) Nonidet-P40 (Sigma)] were added and the mixture was incubated for 15 min at 22° C. to allow pre-binding of the test compounds to the enzyme before the start of the kinase reaction. Then the kinase reaction was started by the addition of 3 μl of a solution of adenosine-tri-phosphate (ATP, 16.7 μM=>final conc. in the 5 μl assay volume is 10 μM) and substrate (1.25 μM=>final conc. in the 5 μl assay volume is 0.75 μM) in assay buffer and the resulting mixture was incubated for a reaction time of 25 min at 22° C. The concentration of CDK2/CycE was adjusted depending of the activity of the enzyme lot and was chosen appropriate to have the assay in the linear range, typical concentrations were in the range of 130 ng/mL The reaction was stopped by the addition of 5 μl of a solution of TR-FRET detection reagents (0.2 μM streptavidine-XL665 [Cisbio Bioassays, Codolet, France] and 1 nM anti-RB(pSer807/pSer811)-antibody from BD Pharmingen [#558389] and 1.2 nM LANCE EU-W1024 labeled anti-mouse IgG antibody [Perkin-Elmer, product no. AD0077]) in an aqueous EDTA-solution (100 mM EDTA, 0.2% (w/v) bovine serum albumin in 100 mM HEPES/NaOH pH 7.0).
The resulting mixture was incubated 1 h at 22° C. to allow the formation of complex between the phosphorylated biotinylated peptide and the detection reagents. Subsequently the amount of phosphorylated substrate was evaluated by measurement of the resonance energy transfer from the Eu-chelate to the streptavidine-XL. Therefore, the fluorescence emissions at 620 nm and 665 nm after excitation at 350 nm was measured in a TR-FRET reader, e.g. a Rubystar (BMG Labtechnologies, Offenburg, Germany) or a Viewlux (Perkin-Elmer). The ratio of the emissions at 665 nm and at 622 nm was taken as the measure for the amount of phosphorylated substrate.

SMILES	pIC50 ([1]; Homo sapiens, 96 h)	pIC50 ([2]; Mus musculus, B16-F10, 96 h)	pIC50 [3]	pIC50 [1]	pIC50 [2]
COc1cc(F)ccc1-c1cc(Nc2cc(CS(C)(=O)=NC(C)=O)ccn2)ncc1F (racemic) [Example 13, (rac)-N-{[(2-{[5-Fluoro-4-(4-fluoro-2-methoxyphenyl)pyridin-2-yl]amino}pyridin-4-yl)methyl](methyl)oxido-λ^6-sulfanylidene}acetamide]	6.96	6.74	6.89		
CCOc1cc(F)ccc1-c1cc(Nc2cc(CS(C)(=N)=O)cc(F)n2)ncc1F (single isomer, unassigned; (-)) [Example 29, (−)-4-(2-Ethoxy-4-fluorophenyl)-5-fluoro-N-{6-fluoro-4-[(S-methylsulfonimidoyl)methyl]pyridin-2-yl}pyridin-2-amine]			7.01	7.09	6.96
COc1cc(F)ccc1-c1cc(Nc2cc(CS(C)(=N)=O)cc(F)n2)ncc1F (racemic) [Example 17, (rac)-5-Fluoro-4-(4-fluoro-2-methoxyphenyl)-N-{6-fluoro-4-[(S-methylsulfonimidoyl)methyl]pyridin-2-yl}pyridin-2-amine]	7.48	7.17	7.31		
COc1cc(F)ccc1-c1cc(Nc2cc(CS(C)(=N)=O)ccn2)ncc1F (single isomer, unassigned; (+)) [Example 2, (+)-5-Fluoro-4-(4-fluoro-2-methoxyphenyl)-N-{4-[(S-methylsulfonimidoyl)methyl]pyridin-2-yl}pyridin-2-amine]			6.44	7.48	6.62
COc1cc(F)ccc1-c1cc(Nc2cc(CS(C)(=O)=NC(=O)C(F)(F)F)cc(C(F)(F)F)n2)ncc1F (single isomer, unassigned; (-)) [Example 25, (−)-2,2,2-Trifluoro-N-[{[2-{[5-fluoro-4-(4-fluoro-2-methoxyphenyl)pyridin-2-yl]amino}-6-(trifluoromethyl)-pyridin-4-yl]methyl}(methyl)oxido-λ^6-sulfanylidene]acetamide]			6.96	7.52	7.30
COc1cc(F)ccc1-c1cc(Nc2cc(CS(C)(=N)=O)ccn2)ncc1F (racemic) [Example 1, (rac)-5-Fluoro-4-(4-fluoro-2-methoxyphenyl)-N-{4-[(S-methylsulfonimidoyl)methyl]pyridin-2-yl}pyridin-2-amine]	7.21	6.96	6.39		
COc1cc(F)ccc1-c1cc(Nc2cc(CS(C)(=N)=O)cc(Cl)n2)ncc1F (racemic) [Example 7, (rac)-N-{6-Chloro-4-[(S-methylsulfonimidoyl)methyl]pyridin-2-yl}-5-fluoro-4-(4-fluoro-2-methoxyphenyl)pyridin-2-amine]	7.49	7.47	7.36		
COc1cc(F)ccc1-c1cc(Nc2cc(CS(C)(=O)=NC#N)ccn2)ncc1F (single isomer, unassigned) [Example 10, {[(2-{[5-Fluoro-4-(4-fluoro-2-methoxyphenyl)pyridin-2-yl]amino}pyridin-4-yl)methyl](methyl)oxido-λ^6-sulfanylidene}cyanamide]	7.49	7.20	7.14		
COc1cc(F)ccc1-c1cc(Nc2cc(CS(C)(=N)=O)cc(C)n2)ncc1F (racemic) [Example 4, (rac)-5-Fluoro-4-(4-fluoro-2-methoxyphenyl)-N-{6-methyl-4-[(S-methylsulfonimidoyl)methyl]pyridin-2-yl}pyridin-2-amine]	7.47	7.00	6.92		
